Columns and labels:
Test in all cases: relative viability (nuclei count vs DMSO), 5 days (fraction); higher = more cells survive
[1] = compound: CC1=CC(=C(N1C2=CC=C(C=C2)Cl)C)C(=O)CN3CCCCC3 [IU1-47]
Procedure, shortened: (§1)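 Lung cancer cell lines received five library-drug doses (not always all listed) spaced by √10, pinned on vehicle-anchored 1536-well plates after an overnight stay at 37 °C. Five days later, with no medium change, nuclei were Hoechst-stained, imaged at 4× and counted with MetaXpress. Viability is treated-well nuclei relative to vehicle-well nuclei, as a median across plates. Passing plates had control CV below 25% and at least one doubling.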

[2] = compound: Cc1nc(C(=O)NCC(=O)O)c(O)c2ccc(Oc3ccccc3)cc12 [FG-4592]
Procedure, shortened: as §1

[3] = compound: CC1=CC(=C(N1C2=CC=C(C=C2)Cl)C)C(=O)CN3CCCCC3 [IU1-47] + CC1(C)CCC(c2ccc(Cl)cc2)=C(CN2CCN(c3ccc(C(=O)NS(=O)(=O)c4ccc(N[C@H](CCN5CCOCC5)CSc5ccccc5)c(S(=O)(=O)C(F)(F)F)c4)cc3)CC2)C1 [Navitoclax] (partner 0.5 µM)
Procedure, shortened: (§2)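 Lung cancer cell lines in 1536-well plates were dosed by pin tool the day after seeding, either with one drug alone or with a fixed anchor-drug dose plus five library-drug doses (not always all listed) in √10 steps. After 5 days, cells were fixed and their nuclei stained in one step (final 0.05% Triton X-100, 1% formaldehyde, 1 ug/ml Hoechst), then counted on 4× images. Relative viability is the nuclei count in treated wells divided by that in vehicle wells. Values are medians of duplicate plates.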

[4] = compound: CC1=CC(=C(N1C2=CC=C(C=C2)Cl)C)C(=O)CN3CCCCC3 [IU1-47] + COc1cc2c(Oc3ccc(NC(=O)C4(C(=O)Nc5ccc(F)cc5)CC4)cc3F)ccnc2cc1OCCCN1CCOCC1 [Foretinib] (partner 0.25 µM)
Procedure, shortened: as §2

Cell Line	relative viability ([1]; 0.08 µM)	relative viability ([1]; 0.253 µM)	relative viability ([1]; 0.8 µM)	relative viability ([1]; 2.53 µM)	relative viability ([1]; 8 µM)	relative viability ([2]; 0.08 µM)	relative viability ([2]; 0.253 µM)	relative viability ([2]; 0.8 µM)	relative viability ([2]; 2.53 µM)	relative viability ([2]; 8 µM)	relative viability ([3]; first compound 0.08 µM)	relative viability ([3]; first compound 0.253 µM)	relative viability ([3]; first compound 0.8 µM)	relative viability ([3]; first compound 2.53 µM)	relative viability ([3]; first compound 8 µM)	relative viability ([4]; first compound 0.08 µM)	relative viability ([4]; first compound 0.253 µM)	relative viability ([4]; first compound 0.8 µM)	relative viability ([4]; first compound 2.53 µM)	relative viability ([4]; first compound 8 µM)
NCI-H1650	0.9	1.04	0.951	0.831	0.845	0.835	0.858	0.986	0.935	0.979	1.08	1.35	1.08	1.36	0.918	1.05	1.17	1.1	1.4	0.886
NCI-H1395	0.879	0.953	0.884	0.534	0.791	0.86	0.795	0.672	0.975	0.761	1.03	1.07	1.14	–	1.15	0.944	0.895	1.12	0.939	1
LU99A	0.977	0.898	1.1	0.953	0.972	0.91	0.862	0.748	0.972	0.961	0.824	0.815	0.974	0.937	0.75	0.768	0.759	0.859	0.932	0.702
NCI-H1355	1.01	1.04	1.03	–	0.881	0.965	0.922	–	0.926	0.912	0.946	0.943	0.977	0.898	0.848	1.06	1.06	0.946	–	0.998
HCC-78	0.97	0.953	1.03	0.874	0.889	0.893	0.746	0.972	0.916	1.01	0.906	0.866	0.819	0.578	0.747	0.608	0.57	0.615	0.551	0.606
HCC-15	1.1	1.08	1.05	0.678	0.976	0.978	0.922	0.954	0.95	1.05	0.829	0.721	0.815	0.626	0.589	1.07	1.11	1.15	1.01	1.05
EKVX	1.23	1.12	1.03	0.859	0.943	1.03	0.809	0.932	0.941	0.992	1.24	1.17	0.965	0.973	0.882	1.12	1.19	0.769	0.265	0.85
NCI-H2087	1.04	1.01	1.06	0.924	1	0.98	0.988	1.32	1.01	1.13	1.1	0.922	1.11	0.947	0.99	1.26	1.14	1.31	–	1.18
LK-2	1.23	1.05	0.988	0.905	0.934	0.78	0.918	0.685	0.883	0.778	1.11	0.956	0.893	0.773	0.546	1.8	1.82	1.78	0.89	0.943
NCI-H1437	1.02	0.94	1.08	0.922	0.936	1	0.929	0.991	0.972	0.822	1.15	1.08	1.1	0.982	0.955	1.31	1.29	1.28	1.22	1.2
COR-L23	1.1	1.08	1.15	0.938	1.15	0.97	1.01	1.11	0.902	1.03	1.1	1.1	1.21	1.16	1.22	1.14	1.09	1.08	1.02	1.16
NCI-H838	1.01	1.05	1.04	1.01	0.955	0.962	0.937	0.853	0.946	0.923	1.25	1.21	1.32	1.27	1.15	1.12	1.07	0.981	1.06	1.11
A549	1.06	1.07	0.978	0.937	1.01	0.979	0.86	0.974	1.02	0.911	1.23	1.27	1.21	1.26	1.1	0.9	1.09	0.983	1.08	0.889
A-427	1.03	1.04	1.12	0.549	0.956	0.923	0.916	0.797	0.866	0.897	1.04	0.993	1.04	–	0.926	1.08	1.16	1.22	–	0.93
LCLC-97TM1	0.954	1.22	1.06	0.589	0.834	0.918	0.901	0.791	0.924	0.873	0.526	0.502	0.517	–	0.404	0.957	1.02	0.892	0.725	0.856
NCI-H1703	1.03	0.75	0.894	0.921	0.922	0.901	0.823	0.935	0.904	0.772	1.06	0.961	0.953	1.44	1.15	0.342	0.315	0.278	0.377	0.361

— the supplement of paper PMC10307832
